Results: patent US20100267755A1, “PYRIMIDINE DERIVATIVES” (GLAXO GROUP LIMITED, priority 2001, published 2010)

Target: T1, microsomal h-COX2 (Homo sapiens, UniProt P35354)
T1 construct: made in house; host or cells: baculovirus infected SF9 cells
T1 sequence (P35354 18-604): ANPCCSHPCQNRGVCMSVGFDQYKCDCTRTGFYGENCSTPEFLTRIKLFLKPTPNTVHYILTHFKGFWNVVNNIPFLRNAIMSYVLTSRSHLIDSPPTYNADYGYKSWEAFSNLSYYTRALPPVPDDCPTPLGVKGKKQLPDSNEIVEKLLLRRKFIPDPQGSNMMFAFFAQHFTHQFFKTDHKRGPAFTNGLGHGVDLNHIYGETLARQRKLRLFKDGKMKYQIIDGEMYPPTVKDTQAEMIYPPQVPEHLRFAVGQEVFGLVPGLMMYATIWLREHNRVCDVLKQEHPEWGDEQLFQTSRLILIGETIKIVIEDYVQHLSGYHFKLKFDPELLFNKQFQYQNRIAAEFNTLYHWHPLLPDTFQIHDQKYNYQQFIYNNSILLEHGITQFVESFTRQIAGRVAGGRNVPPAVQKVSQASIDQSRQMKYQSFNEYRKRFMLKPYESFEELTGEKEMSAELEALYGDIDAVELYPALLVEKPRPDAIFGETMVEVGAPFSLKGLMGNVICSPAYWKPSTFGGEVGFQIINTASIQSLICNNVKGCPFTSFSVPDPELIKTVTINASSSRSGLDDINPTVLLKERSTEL
Assay: Inhibitory activity against microsomal h-COX2 (PGE2 by EIA)
Format: biochemical
Settings: for IC50: microsomal preparation from baculovirus infected SF9 cells, 0.1 μM arachidonic acid, read-out: COX-2 IC50; for inhibition at 10 µM: read-out: COX-2% inhibition
Description: Inhibitory activity against microsomal h-COX2 was assessed against a microsomal preparation from baculovirus infected SF9 cells. An aliquot of microsomal preparation was thawed slowly on ice and a 1/40,000 dilution prepared from it into the assay buffer (sterile water, degassed with argon containing 100 mM HEPES (pH 7.4), 10 mM EDTA (pH7.4), 1 mM phenol, 1 mM reduced glutathione, 20 mg/ml gelatin and 0.001 mM Hematin). Once diluted the enzyme solution was then sonicated for 5 seconds (Branson sonicator, setting 4, 1 cm tip) to ensure a homogeneous suspension. […] Plates were then mixed and incubated at room temperature for 1 hour. Following the incubation period, 40 μl of 0.5 μM arachidonic acid was added to each well to give a final concentration of 0.1 μM. Plates were then mixed and incubated for exactly 10 minutes (room temperature) prior to addition of 25 μl 1M HCl (hydrochloric acid) to each well to stop the reaction. 25 μl of 1M NaOH (sodium hydroxide) was then added to each well to neutralise the solution prior to determination of PGE2 levels by enzyme immunoassay (EIA).

Row | SMILES | IC50 [µM] | inhibition at 10 µM [%]
1 | CCCNc1nc(-c2ccc(S(C)(=O)=O)cc2)c(C)c(C(F)(F)F)n1 [Example 8] | 26.7 | 
2 | Cc1c(-c2ccc(S(C)(=O)=O)cc2)nc(NCc2cccs2)nc1C(F)(F)F [Example 4] | 0.56 | 
3 | CCCCNc1nc(-c2ccc(S(C)(=O)=O)cc2)c(C)c(C(F)(F)F)n1 [Example 11] | 6.3 | 43
4 | Cc1c(-c2ccc(S(C)(=O)=O)cc2)nc(NCC(C)C)nc1C(F)(F)F [Example 2, N-isobutyl-5-methyl-4-[4-(methylsulfonyl)phenyl]-6-(trifluoromethyl)pyrimidin-2-amine] | 6.6 | 
5 | Cc1c(-c2ccc(S(C)(=O)=O)cc2)nc(NCc2ccccc2)nc1C(F)(F)F [Example 1, N-benzyl-5-methyl-4-[4-(methylsulfonyl)phenyl]-6-(trifluoromethyl)pyrimidin-2-amine] | 1.3 | 61
6 | Cc1c(-c2ccc(S(C)(=O)=O)cc2)nc(NCCc2ccccn2)nc1C(F)(F)F [Example 10] | 71.2 | 
7 | Cc1c(-c2ccc(S(C)(=O)=O)cc2)nc(NC2CCCCC2)nc1C(F)(F)F [Example 6] | 2.3 | 
8 | Cc1c(-c2ccc(S(C)(=O)=O)cc2)nc(NCc2ccccn2)nc1C(F)(F)F [Example 9] | > 98.6 | 
9 | Cc1c(-c2ccc(S(C)(=O)=O)cc2)nc(NCC2CCOCC2)nc1C(F)(F)F [Example 7] | > 100 | 
10 | Cc1c(-c2ccc(S(C)(=O)=O)cc2)nc(NCc2ccccc2O)nc1C(F)(F)F [Example 3] | 2.5 | 
11 | Cc1ccc(CNc2nc(-c3ccc(S(C)(=O)=O)cc3)c(C)c(C(F)(F)F)n2)cc1 [Example 5] | 15.3 | 
